Experimental findings from patent US20230416232A1, “PYRIMIDINE COMPOUNDS, COMPOSITIONS, AND MEDICINAL APPLICATIONS THEREOF” (Blueprint Medicines Corporation, priority 2020, published 2023) are described below.

Holding throughout (type): cell-based
Assay [1] has as its target EGFR(D770_N771insSVD) expressing Ba/F3 stable cell line (Homo sapiens, UniProt P00533, DUP768-770, cells depend on it). In words: Cellular proliferation (Alamar Blue) assay, EGFR(D770_N771insSVD) Ba/F3. The conditions noted are these: 72 hr, read-out: D770 IC50. Put shortly:
(§1)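 Seed A431 at 5000 and Ba/F3 at 15,000 cells/well in 10% FBS medium and incubate 16-18 h at 37 °C, 5% CO2. Add compound (final 10-0.0005 μM, 3-fold steps) or DMSO for 72 h. Add Alamar Blue and read after 3 h.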

The target in assay [2] is HER2 (A775_G776insYVMA) expressing Ba/F3 stable cell line (Homo sapiens, UniProt P04626, DUP772-775, cells depend on it). The experiment in a line: Cellular proliferation (Alamar Blue) assay, HER2 (A775_G776insYVMA) Ba/F3. The conditions noted are these: HER2 (A775_G776insYVMA) Ba/F3 cells; 72 hr; Alamar Blue; read-out: YVMA IC50. Put shortly: as §1
The target in assay [3] is EGFR (A767_dupASV) expressing Ba/F3 stable cell line (Homo sapiens, UniProt P00533, DUP767-769, cells depend on it). In words: Cellular proliferation (Alamar Blue) assay, EGFR (A767_dupASV) Ba/F3. The following applies: 72 hr, read-out: A767 IC50. Put shortly: as §1
(Resazurin is reduced to fluorescent resorufin, in cell work by metabolically active cells.)

A further assay concerns A431 cells. In words: Cellular proliferation (Alamar Blue) assay, A431 cells. The following applies: A431 cells, 72 hr, Alamar Blue, read-out: A431 IC50. Put shortly: as §1

Molecules are shown by their SMILES. pIC50: −log10 of the molar value. Where two headings read alike, the source gives them in different places.

Chain of HER2 (A775_G776insYVMA) expressing Ba/F3 stable cell line (P04626 with tags, fused parts or gaps DUP772-775): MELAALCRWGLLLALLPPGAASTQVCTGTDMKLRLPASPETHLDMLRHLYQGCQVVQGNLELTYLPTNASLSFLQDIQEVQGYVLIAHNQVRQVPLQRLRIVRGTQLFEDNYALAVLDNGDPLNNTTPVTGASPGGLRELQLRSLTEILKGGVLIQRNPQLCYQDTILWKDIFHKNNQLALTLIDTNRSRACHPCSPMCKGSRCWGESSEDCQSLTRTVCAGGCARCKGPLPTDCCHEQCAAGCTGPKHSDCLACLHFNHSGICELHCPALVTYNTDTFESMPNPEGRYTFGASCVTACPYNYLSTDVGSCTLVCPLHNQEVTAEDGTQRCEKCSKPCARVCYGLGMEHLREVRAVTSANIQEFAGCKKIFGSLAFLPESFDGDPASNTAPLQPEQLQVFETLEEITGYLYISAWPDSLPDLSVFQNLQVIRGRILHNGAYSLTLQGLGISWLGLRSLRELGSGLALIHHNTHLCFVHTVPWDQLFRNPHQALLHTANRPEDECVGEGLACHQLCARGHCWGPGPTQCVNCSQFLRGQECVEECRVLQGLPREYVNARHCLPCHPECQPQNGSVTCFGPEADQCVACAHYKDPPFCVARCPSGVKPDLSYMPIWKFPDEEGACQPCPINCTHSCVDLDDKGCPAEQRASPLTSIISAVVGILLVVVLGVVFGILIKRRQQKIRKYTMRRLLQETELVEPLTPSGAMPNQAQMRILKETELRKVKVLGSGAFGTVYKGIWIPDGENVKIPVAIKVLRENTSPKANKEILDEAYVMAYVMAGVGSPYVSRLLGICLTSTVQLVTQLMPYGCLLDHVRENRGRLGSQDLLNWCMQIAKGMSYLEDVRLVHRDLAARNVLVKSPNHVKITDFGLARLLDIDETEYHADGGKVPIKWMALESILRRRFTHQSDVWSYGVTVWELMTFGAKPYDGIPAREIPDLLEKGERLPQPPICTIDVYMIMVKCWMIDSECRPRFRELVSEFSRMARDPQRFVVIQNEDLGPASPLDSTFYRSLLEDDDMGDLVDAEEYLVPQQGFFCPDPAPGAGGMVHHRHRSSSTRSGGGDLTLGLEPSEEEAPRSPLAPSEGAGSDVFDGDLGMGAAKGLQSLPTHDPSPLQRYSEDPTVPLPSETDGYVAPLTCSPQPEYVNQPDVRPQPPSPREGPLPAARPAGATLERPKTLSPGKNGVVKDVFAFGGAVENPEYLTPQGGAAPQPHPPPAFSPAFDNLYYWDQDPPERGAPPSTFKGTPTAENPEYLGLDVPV
Chain of EGFR (A767_dupASV) expressing Ba/F3 stable cell line (P00533 with tags, fused parts or gaps DUP767-769): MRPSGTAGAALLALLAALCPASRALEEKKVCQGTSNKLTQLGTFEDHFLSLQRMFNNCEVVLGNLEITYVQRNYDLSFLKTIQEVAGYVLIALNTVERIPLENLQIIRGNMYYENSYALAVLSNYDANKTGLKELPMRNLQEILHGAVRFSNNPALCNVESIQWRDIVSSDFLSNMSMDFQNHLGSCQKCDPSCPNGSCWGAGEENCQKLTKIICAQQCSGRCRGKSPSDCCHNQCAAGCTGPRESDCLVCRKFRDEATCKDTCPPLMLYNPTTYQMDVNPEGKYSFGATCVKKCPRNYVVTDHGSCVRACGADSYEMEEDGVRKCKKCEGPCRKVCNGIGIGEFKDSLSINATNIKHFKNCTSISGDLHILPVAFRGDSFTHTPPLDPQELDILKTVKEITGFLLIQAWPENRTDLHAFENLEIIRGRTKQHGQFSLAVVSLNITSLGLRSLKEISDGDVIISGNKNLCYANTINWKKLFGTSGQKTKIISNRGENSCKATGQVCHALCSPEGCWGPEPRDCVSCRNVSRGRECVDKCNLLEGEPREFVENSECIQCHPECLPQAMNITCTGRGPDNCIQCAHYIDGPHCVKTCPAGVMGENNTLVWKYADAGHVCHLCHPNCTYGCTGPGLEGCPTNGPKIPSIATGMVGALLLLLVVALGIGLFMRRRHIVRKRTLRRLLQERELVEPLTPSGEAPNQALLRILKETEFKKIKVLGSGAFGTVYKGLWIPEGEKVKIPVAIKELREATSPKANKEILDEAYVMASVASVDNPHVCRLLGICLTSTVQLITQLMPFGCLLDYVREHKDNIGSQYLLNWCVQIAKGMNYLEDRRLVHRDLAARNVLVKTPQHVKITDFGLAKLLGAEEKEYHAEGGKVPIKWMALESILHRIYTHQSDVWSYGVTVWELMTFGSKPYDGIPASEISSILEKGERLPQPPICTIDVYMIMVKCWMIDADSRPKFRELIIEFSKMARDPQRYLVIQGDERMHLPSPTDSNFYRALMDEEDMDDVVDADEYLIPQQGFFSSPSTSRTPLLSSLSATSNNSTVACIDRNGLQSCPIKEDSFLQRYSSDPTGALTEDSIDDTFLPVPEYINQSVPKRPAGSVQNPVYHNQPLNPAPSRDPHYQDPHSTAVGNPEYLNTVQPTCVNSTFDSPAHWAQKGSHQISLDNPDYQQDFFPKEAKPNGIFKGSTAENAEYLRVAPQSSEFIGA
Chain of EGFR(D770_N771insSVD) expressing Ba/F3 stable cell line (P00533 with tags, fused parts or gaps DUP768-770): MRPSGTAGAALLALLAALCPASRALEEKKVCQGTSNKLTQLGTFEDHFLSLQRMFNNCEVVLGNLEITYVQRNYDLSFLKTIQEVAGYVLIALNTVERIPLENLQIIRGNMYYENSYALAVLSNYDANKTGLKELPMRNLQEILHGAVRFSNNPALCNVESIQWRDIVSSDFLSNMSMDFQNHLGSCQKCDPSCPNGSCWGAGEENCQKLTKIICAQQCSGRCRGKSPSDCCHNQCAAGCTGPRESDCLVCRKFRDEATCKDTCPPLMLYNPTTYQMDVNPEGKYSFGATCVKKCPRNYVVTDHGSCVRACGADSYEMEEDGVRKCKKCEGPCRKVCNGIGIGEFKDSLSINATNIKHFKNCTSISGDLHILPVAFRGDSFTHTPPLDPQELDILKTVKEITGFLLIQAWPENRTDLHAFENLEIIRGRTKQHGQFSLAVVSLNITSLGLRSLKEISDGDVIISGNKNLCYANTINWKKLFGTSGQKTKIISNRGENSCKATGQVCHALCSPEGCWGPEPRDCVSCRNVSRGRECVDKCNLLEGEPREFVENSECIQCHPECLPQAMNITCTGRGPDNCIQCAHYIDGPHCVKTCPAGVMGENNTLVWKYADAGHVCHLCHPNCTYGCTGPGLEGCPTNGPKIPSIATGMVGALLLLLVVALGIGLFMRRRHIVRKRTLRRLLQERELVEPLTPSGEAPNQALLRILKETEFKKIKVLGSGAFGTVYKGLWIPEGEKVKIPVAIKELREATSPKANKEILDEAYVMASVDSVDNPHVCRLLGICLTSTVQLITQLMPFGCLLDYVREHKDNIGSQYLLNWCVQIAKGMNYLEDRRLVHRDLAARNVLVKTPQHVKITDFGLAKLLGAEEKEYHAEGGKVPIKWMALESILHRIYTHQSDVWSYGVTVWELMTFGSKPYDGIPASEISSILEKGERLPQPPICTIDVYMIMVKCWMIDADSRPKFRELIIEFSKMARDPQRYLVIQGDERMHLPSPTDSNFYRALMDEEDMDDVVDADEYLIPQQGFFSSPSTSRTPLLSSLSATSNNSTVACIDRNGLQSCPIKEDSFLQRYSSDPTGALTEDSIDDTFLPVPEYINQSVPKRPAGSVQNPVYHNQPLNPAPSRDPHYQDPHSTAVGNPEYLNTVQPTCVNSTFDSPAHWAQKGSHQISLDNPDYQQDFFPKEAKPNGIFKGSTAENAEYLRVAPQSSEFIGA

As for `C=CC(=O)Nc1ccc(F)c(Nc2nc(Nc3cnn(C)c3)ncc2-c2cc(F)c(Cl)c(F)c2)c1` [Compound 158, N-(3-((5-(4-chloro-3,5-difluorophenyl)-2-((1-methyl-1H-pyrazol-4-yl)amino)pyrimidin-4-yl)amino)-4-fluorophenyl)acrylamide], the GI50 worked out at 11 nM in assay [1], 40 nM in assay [2] and 15 nM in assay [3]. Moreover, in the assay with A431 cells (Homo sapiens, A-431, 72 h), the negative logarithm of the IC50 (pIC50) is 8.00.
In the same order, the values of `C=CC(=O)Nc1cc(Cl)cc(Nc2nc(Nc3cnn(C)c3)ncc2-c2ccc(Br)c(F)c2)c1` [Compound 159, N-(3-((5-(4-bromo-3-fluorophenyl)-2-((1-methyl-1H-pyrazol-4-yl)amino)pyrimidin-4-yl)amino)-5-chlorophenyl)acrylamide] are 24 nM, 125 nM, 29 nM and 7.64.
In the same order, the values of `C=CC(=O)Nc1ccc(F)c(Nc2nc(Nc3cnn(C)c3)ncc2-c2cc(F)c(F)c(OC(F)F)c2)c1` [Compound 160, N-(3-((5-(3-(difluoromethoxy)-4,5-difluorophenyl)-2-((1-methyl-1H-pyrazol-4-yl)amino)pyrimidin-4-yl)amino)-4-fluorophenyl)acrylamide] are 68 nM, 163 nM, 63 nM and 6.58.
In the case of `CN(C)C/C=C/C(=O)Nc1ccc(F)c(Nc2nc(Nc3cnn(C)c3)ncc2-c2cc(F)cc(F)c2)c1` [Compound 161, (E)-N-(3-((5-(3,5-difluorophenyl)-2-((1-methyl-1H-pyrazol-4-yl)amino)pyrimidin-4-yl)amino)-4-fluorophenyl)-4-(dimethylamino)but-2-enamide], the GI50 in assay [1] came out at 217 nM; in assay [2] it was 62 nM; in assay [3] it was 140 nM. Moreover, the negative logarithm of the IC50 (pIC50) in the assay with A431 cells was 6.12.
In the case of `C=CC(=O)Nc1ccc(F)c(Nc2nc(Nc3cnn(C)c3)ncc2-c2ccc3c(c2)OCC3)c1` [Compound 162, N-(3-((5-(2,3-dihydrobenzofuran-6-yl)-2-((1-methyl-1H-pyrazol-4-yl)amino)pyrimidin-4-yl)amino)-4-fluorophenyl)acrylamide], the values for the GI50 in assay [1], in assay [2] and in assay [3] were 38 nM, 428 nM and 116 nM, respectively. Besides, in the assay on A431 cells (Homo sapiens, A-431, 72 h), the pIC50 was 7.08.
In the same order, the values of `C=CC(=O)Nc1cc(F)cc(Nc2nc(Nc3cnn(C)c3)ncc2-c2cc(F)c(Br)c(Cl)c2)c1` [Compound 163, N-(3-((5-(4-bromo-3-chloro-5-fluorophenyl)-2-((1-methyl-1H-pyrazol-4-yl)amino)pyrimidin-4-yl)amino)-5-fluorophenyl)acrylamide] are 26 nM, 104 nM, 22 nM and 6.89.
In the same order, the values of `C=CC(=O)Nc1cc(F)cc(Nc2nc(Nc3cnn(C)c3)ncc2-c2cc(F)c(C(F)(F)F)c(F)c2)c1` [Compound 164, N-(3-((5-(3,5-difluoro-4-(trifluoromethyl)phenyl)-2-((1-methyl-1H-pyrazol-4-yl)amino)pyrimidin-4-yl)amino)-5-fluorophenyl)acrylamide] are 22 nM, 157 nM, 18 nM and 6.99.
Take `[2H]C([2H])([2H])Oc1cc(F)cc(-c2cnc(Nc3cnn(C)c3)nc2Nc2cc(NC(=O)C=C)ccc2F)c1` [Compound 165, N-(4-fluoro-3-((5-(3-fluoro-5-(methoxy-d3)phenyl)-2-((1-methyl-1H-pyrazol-4-yl)amino)pyrimidin-4-yl)amino)phenyl)acrylamide]: the GI50 in assay [1] was 70 nM; in assay [2], 208 nM; in assay [3], 110 nM. The pIC50 in the assay on A431 cells (Homo sapiens, A-431, 72 h) is 6.41.

One may read the pIC50 as the IC50 on a negative log10 scale, so that one unit is a factor of ten.
